Results published in patent US20160045505A1, “COMPOUNDS AND COMPOSITIONS FOR THE TREATMENT OF PARASITIC DISEASES” (NOVARTIS AG, priority 2013, published 2016).
Where two headings read alike, the source gives them in different places.

Experiments:
[1] = tested on: Leishmania donovani axenic amastigote parasites; experiment: Leishmania donovani axenic amastigote proliferation assay (Cell TiterGlo luminescence, 2 day incubation); assay type: cell-based; conditions: Leishmania donovani, axenic amastigotes, inhibition of proliferation; read-out: L. donovani amastigotes EC50
[2] = tested on: L. donovani HU3 strain in mouse peritoneal macrophages; experiment: Assay for proliferation of Leishmania parasites in infected mouse peritoneal macrophages (SybrGreen staining, high-content imaging, 5 days); assay type: cell-based, Leishmania donovani; conditions: Leishmania donovani, Peritoneal macrophage, L. donovani in mouse peritoneal macrophages, inhibition of proliferation; read-out: L. donovani Macrophage EC50
[3] = tested on: Trypanosoma brucei Lister 427 strain, bloodstream form; experiment: Assay for proliferation of kinetoplastid parasite Trypanosoma brucei (Cell Titer Glo, 48 hours); assay type: cell-based; conditions: Trypanosoma brucei, read-out: T. brucei EC50
How it was run: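 Bloodstream-form T. brucei Lister 427 in HMI-9 medium was exposed to compound (DMSO vehicle) for 48 hours at 37° C, 5% CO2. Parasite growth was read as ATP by CellTiter-Glo luminescence, with EC50 calculated from percent inhibition.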

[4] = tested on: Trypanosoma cruzi amastigotes (Tulahuen strain expressing Lac-Z) cultured in 3T3 fibroblast cells; experiment: microbe, parasite or virus in culture; assay type: cell-based; conditions: Trypanosoma cruzi, TULAHUEN, Fibroblast, T. cruzi amastigotes in 3T3 fibroblast cells, inhibition of proliferation; read-out: T cruzi EC50
[5] = T. brucei Lister 427 bloodstream form, inhibition of proliferation

Row | SMILES | EC50 [1] | EC50 [2] | EC50 [3, 5] | EC50 [4] | EC50 [3]
1 | Cc1nc(C(=O)Nc2ccc(Cl)c(-c3cn4cc(NC(=O)OC(C)C)cnc4n3)c2)c(C)o1 [Compound 46] | 1390 nM | 4990 nM | 3010 nM | 262 nM | –
2 | Cc1ncc(C(=O)Nc2ccc(Cl)c(-c3cn4cc(NC(=O)OC(C)C)cnc4n3)c2)o1 [Compound 47] | 77 nM | 220 nM | 128 nM | 442 nM | –
3 | CC(C)OC(=O)Nc1cnc2nc(-c3cc(NC(=O)c4cn5cccnc5n4)ccc3Cl)cn2c1 [Compound 49] | > 25000 nM | > 50000 nM | > 50000 nM | > 20000 nM | –
4 | CC(=O)Nc1ncc(C(=O)Nc2ccc(Cl)c(-c3cn4cc(NC(=O)OC(C)C)cnc4n3)c2)s1 [Compound 50] | > 25000 nM | > 50000 nM | > 50000 nM | > 20000 nM | –
5 | CC(C)OC(=O)Nc1cnc2nc(-c3cc(NC(=O)c4cnco4)ccc3Cl)cn2c1 [Compound 52] | 261 nM | 2740 nM | 571 nM | 1280 nM | –
6 | Cc1ncoc1C(=O)Nc1ccc(Cl)c(-c2cn3cc(NC(=O)OC(C)C)cnc3n2)c1 [Compound 53] | 448 nM | 6270 nM | 386 nM | 572 nM | –
7 | CC(C)OC(=O)Nc1cnc2nc(-c3cc(NC(=O)c4cnc(C5CC5)o4)ccc3Cl)cn2c1 [Compound 60] | 727 nM | 1100 nM | 1540 nM | 444 nM | –
8 | CC(C)OC(=O)Nc1cnc2nc(-c3cc(NC(=O)c4ccc(Cl)s4)ccc3F)cn2c1 [Compound 66] | 2810 nM | 16100 nM | 1840 nM | 444 nM | –
9 | Cc1nc(C)c(C(=O)Nc2ccc(F)c(-c3cn4cc(NC(=O)OC(C)C)cnc4n3)c2)s1 [Compound 68] | 14200 nM | 39200 nM | 14200 nM | 3600 nM | –
10 | Cc1nc(C(=O)Nc2ccc(F)c(-c3cn4cc(NC(=O)OC(C)C)cnc4n3)c2)c(C(F)(F)F)o1 [Compound 69] | 1400 nM | 3300 nM | 3120 nM | 403 nM | –
11 | CC(C)OC(=O)Nc1cnc2nc(-c3cc(NC(=O)c4ccc(Br)o4)ccc3F)cn2c1 [Compound 70] | 136 nM | 190 nM | 54 nM | 72 nM | –
12 | CC(C)OC(=O)Nc1cnc2nc(-c3cc(NC(=O)c4ccnn4C)ccc3F)cn2c1 [Compound 74] | 608 nM | 3890 nM | 490 nM | 608 nM | –
13 | CC(C)OC(=O)Nc1cnc2nc(-c3cc(NC(=O)c4cccs4)ccc3F)cn2c1 [Compound 75] | 581 nM | > 6020 nM | 482 nM | 150 nM | –
14 | Cc1ncoc1C(=O)Nc1ccc(F)c(-c2cn3cc(NC(=O)OC(C)C)cnc3n2)c1 [Compound 76] | 305 nM | 4220 nM | 348 nM | 636 nM | –
15 | CC(C)OC(=O)Nc1cnc2nc(-c3cc(NC(=O)c4cnco4)ccc3F)cn2c1 [Compound 78] | 307 nM | 6410 nM | 553 nM | 1910 nM | –
16 | Cc1cc(C(=O)Nc2ccc(F)c(-c3cn4cc(NC(=O)OC(C)C)cnc4n3)c2)[nH]n1 [Compound 79] | 7280 nM | > 50000 nM | 7350 nM | > 20000 nM | –
17 | Cc1ccc(C(=O)Nc2ccc(F)c(-c3cn4cc(NC(=O)OC(C)C)cnc4n3)c2)o1 [Compound 80] | 89 nM | 244 nM | 59 nM | 63 nM | –
18 | CC(C)OC(=O)Nc1cnc2nc(-c3cc(NC(=O)c4c[nH]cn4)ccc3F)cn2c1 [Compound 81] | > 25000 nM | > 50000 nM | > 50000 nM | > 20000 nM | –
19 | CC(C)OC(=O)Nc1cnc2nc(-c3cc(NC(=O)c4ccc(Br)s4)ccc3F)cn2c1 [Compound 82] | 4990 nM | 3900 nM | 4200 nM | 1210 nM | –
20 | CC(=O)c1ccc(C(=O)Nc2ccc(F)c(-c3cn4cc(NC(=O)OC(C)C)cnc4n3)c2)s1 [Compound 83] | 15400 nM | 6810 nM | > 50000 nM | 7040 nM | –
21 | CC(C)OC(=O)Nc1cnc2nc(-c3cc(NC(=O)[C@H](N)c4ccccc4)ccc3F)cn2c1 [Compound 85] | > 25000 nM | 15200 nM | 32700 nM | 10800 nM | –
22 | Cc1cc(C(=O)Nc2ccc(F)c(-c3cn4cc(NC(=O)OC(C)C)cnc4n3)c2)no1 [Compound 86] | > 25000 nM | > 50000 nM | 924 nM | > 20000 nM | –
23 | CC(C)OC(=O)Nc1cnc2nc(-c3cc(NC(=O)C(C)N)ccc3F)cn2c1 (stereo not drawn) [Compound 87] | > 25000 nM | > 43700 nM | > 50000 nM | > 20000 nM | –

Row | SMILES | EC50 [1] | EC50 [2] | EC50 [3, 5] | EC50 [4] | EC50 [3]
24 | Cc1ccc(C(=O)Nc2ccc(F)c(-c3cn4cc(NC(=O)OC(C)C)cnc4n3)c2)s1 [Compound 88] | 5370 nM | 19700 nM | – | 1170 nM | 1180 nM
25 | CC(C)OC(=O)Nc1cnc2nc(-c3cc(NC(=O)c4cncs4)ccc3F)cn2c1 [Compound 90] | 894 nM | 7580 nM | 610 nM | 1460 nM | –
26 | CC(C)OC(=O)Nc1cnc2nc(-c3cc(NC(=O)c4nccn4C)ccc3F)cn2c1 [Compound 97] | 12000 nM | 18200 nM | 13200 nM | 10500 nM | –
27 | CC(C)OC(=O)Nc1cnc2nc(-c3cc(NC(=O)c4ccn(C)n4)ccc3F)cn2c1 [Compound 98] | 645 nM | 3340 nM | 503 nM | 549 nM | –
28 | CC(C)OC(=O)Nc1cnc2nc(-c3cc(NC(=O)C4CC(=O)C4)ccc3F)cn2c1 [Compound 101] | 636 nM | 2520 nM | 3490 nM | 9950 nM | –
29 | CC(C)OC(=O)Nc1cnc2nc(-c3cc(NC(=O)C4CCC4)ccc3F)cn2c1 [Compound 102] | 540 nM | 1710 nM | 492 nM | 464 nM | –
30 | CC(C)OC(=O)Nc1cnc2nc(-c3cc(NC(=O)/C=C/CN(C)C)ccc3F)cn2c1 [Compound 103] | 2150 nM | 9860 nM | 5620 nM | 10800 nM | –
31 | CCC(C)C(=O)Nc1ccc(F)c(-c2cn3cc(NC(=O)OC(C)C)cnc3n2)c1 (stereo not drawn) [Compound 104] | 2390 nM | > 50000 nM | 1210 nM | 1340 nM | –
32 | CC(C)OC(=O)Nc1cnc2nc(-c3cc(NC(=O)C(C)C)ccc3F)cn2c1 [Compound 105] | 2170 nM | > 50000 nM | 1480 nM | 1460 nM | –
33 | COCC(=O)Nc1ccc(F)c(-c2cn3cc(NC(=O)OC(C)C)cnc3n2)c1 [Compound 106] | 2740 nM | 24800 nM | 2200 nM | 3450 nM | –
34 | CC(C)OC(=O)Nc1cnc2nc(-c3cc(NC(=O)c4ccc(S(C)(=O)=O)s4)ccc3F)cn2c1 [Compound 109] | > 25000 nM | 28200 nM | > 50000 nM | > 20000 nM | –
35 | CC(C)OC(=O)Nc1cnc2nc(-c3cc(NC(=O)CN4CCCC4)ccc3F)cn2c1 [Compound 110] | > 25000 nM | 8100 nM | 27700 nM | 9590 nM | –
36 | Cc1cc(C(=O)Nc2ccc(F)c(-c3cn4cc(NC(=O)OC(C)C)cnc4n3)c2)on1 [Compound 112] | 2100 nM | 16600 nM | 1090 nM | 1270 nM | –
37 | Cc1nc(C)c(C(=O)Nc2ccc(F)c(-c3cn4cc(NC(=O)C5COCCO5)cnc4n3)c2)o1 (stereo not drawn) [Compound 113] | 257 nM | 502 nM | 452 nM | 2990 nM | –
38 | Cc1nc(C)c(C(=O)Nc2ccc(F)c(-c3cn4cc(NC(=O)C5(C)CCC5)cnc4n3)c2)o1 [Compound 114] | 143 nM | 266 nM | 105 nM | 1070 nM | –
39 | Cc1nc(C)c(C(=O)Nc2ccc(F)c(-c3cn4cc(NC(=O)C5(C)CC5)cnc4n3)c2)o1 [Compound 115] | 73 nM | 93 nM | 54 nM | 410 nM | –
40 | CC1=C(C(=O)Nc2cnc3nc(-c4cc(NC(=O)c5oc(C)nc5C)ccc4F)cn3c2)OCCO1 [Compound 116] | 96 nM | 484 nM | 153 nM | 3420 nM | –
41 | CCn1ccnc1C(=O)Nc1cnc2nc(-c3cc(NC(=O)c4oc(C)nc4C)ccc3F)cn2c1 [Compound 117] | 125 nM | > 50000 nM | 166 nM | > 20000 nM | –
42 | Cc1nc(C)c(C(=O)Nc2ccc(F)c(-c3cn4cc(NC(=O)C5(C)CC(F)(F)C5)cnc4n3)c2)o1 [Compound 118] | 606 nM | 2050 nM | 442 nM | 3380 nM | –
43 | Cc1nc(C)c(C(=O)Nc2ccc(F)c(-c3cn4cc(NC(=O)c5ccccn5)cnc4n3)c2)o1 [Compound 119] | 56 nM | 289 nM | 86 nM | 78 nM | –
44 | Cc1nc(C)c(C(=O)Nc2ccc(F)c(-c3cn4cc(NC(=O)C5CCOC(C(C)C)C5)cnc4n3)c2)o1 (stereo not drawn) [Compound 120] | 300 nM | 975 nM | 419 nM | 767 nM | –
45 | O=C(Nc1cnc2nc(-c3cc(NC(=O)N4CCCC4)ccc3F)cn2c1)C1CCCN1 (stereo not drawn) [Compound 121] | 23100 nM | > 50000 nM | 3950 nM | > 20000 nM | –
